Experimental data as given in US10208067B2, “Compounds for treating spinal muscular atrophy” (Hoffmann-La Roche Inc., priority 2015, dated 2019).
Where two headings read alike, the source gives them in different places.

Assays:
[1] = test system: SMN protein in SMA patient fibroblast cells (GM03813); assay: SMN protein assay (HTRF) in cultured cells; assay type: cell-based; details: Homo sapiens, SMA Type 1 patient fibroblasts, 48 hours; for EC (1.5-fold): concentration producing 1.5 times SMN protein vs vehicle, read-out: EC1.5x SMN protein; for maximal fold induction: relative to vehicle control, read-out: max. fold increase of SMN protein
Method: The SMN HTRF (homogeneous time resolved fluorescence) assay is used to quantify the level of SMN protein in SMA patient fibroblast cells treated with test compounds. Materials used and respective sources are listed below in Table 4.
Cells are thawed and cultured in DMEM-10% FBS for 72 hours. Cells are trypsinized, counted and re-suspended to a concentration of 25,000 cells/mL in DMEM-10% FBS. The cell suspensions are plated at 5,000 cells per well in a 96 well microtiter plate and incubated for […]. […] 1 μL of test compound solution is transferred to cell-containing wells and cells are incubated for 48 hours in a cell culture incubator (37° C., 5% CO2, 100% relative humidity). Triplicate samples are set up for each test compound concentration. After 48 hours, the supernatant is removed from the wells and 25 μL of the RIPA lysis buffer, containing protease inhibitors, is added to the wells and incubated with shaking at room temperature for 1 hour. 25 μL of the diluent is added and then 35 μL of the resulting lysate is transferred to a 384-well plate, where each well contains 5 μL of the antibody solution (1:100 dilution of anti-SMN d2 and anti-SMN cryptate in SMN reconstitution buffer). The plate is centrifuged for 1 minute to bring the solution to the bottom of the wells, then incubated overnight at room temperature. Fluorescence for each well of the plate at 665 nm and 620 nm is measured on an EnVision multilabel plate reader (Perkin-Elmer).
The normalized fluorescence signal is calculated for each sample, Blank and vehicle control well by dividing the signal at 665 nm by the signal at 620 nm. Normalizing the signal accounts for possible fluorescence quenching due to the matrix effect of the lysate. The ΔF value (a measurement of SMN protein abundance as a percent value) for each sample well is calculated by subtracting the normalized average fluorescence for the Blank control wells from the normalized fluorescence for each sample well, then dividing this difference by the normalized average fluorescence for the Blank control wells and multiplying the resulting value by 100. The ΔF value for each sample well represents the SMN protein abundance from test compound-treated samples. The ΔF value for each sample well is divided by the ΔF value for the vehicle control wells to calculate the fold increase in SMN protein abundance relative to the vehicle control. Table 5 provides EC1-5× concentrations for SMN protein expression that was obtained from the 7-point concentration data generated according to the above procedure for particular compounds of the present invention.
Table 6 provides the maximum fold increase of SMN protein that was obtained from the 7-point concentration data generated according to the above procedure for particular compounds of the present invention

[2] = test system: full length SMN2 minigene mRNA (HEK293H cells stably transfected with SMN2-A minigene); assay: RT-qPCR assay for SMN2 minigene pre-mRNA splicing in cultured cells; assay type: cell-based; details: Homo sapiens, HEK293-H, 24 hours
[3] = Table 3 (title: production of full length SMN2 minigene mRNA), read-out: EC1.5x SMN protein
[4] = concentration increasing full length SMN2 minigene mRNA 1.5-fold vs vehicle, read-out: EC1.5x minigene

Row | Structure (SMILES) | EC (1.5-fold) [1] | maximal fold induction [1] | EC (1.5-fold) [2, 3] | EC (1.5-fold) [2, 4]
1 | Cc1nc2ccc(-c3cc(=O)n4cc(N5CC6(CCNCC6)C5)ccc4n3)nn2n1 [Example 38, 7-(2,7-diazaspiro[3.5]nonan-2-yl)-2-(2-methyl-[1,2,4]triazolo[1,5-b]pyridazin-6-yl)pyrido[1,2-a]pyrimidin-4-one] | 0.0199 µM | 1.69 | 0.002 µM | 
2 | Cc1nc2ncc(-c3cc(=O)n4cc(N5C[C@H](C)N[C@@H](C)C5)ccc4n3)cn2n1 [Example 11, 7-[(3S,5S)-3,5-dimethylpiperazin-1-yl]-2-(2-methyl-[1,2,4]triazolo[1,5-a]pyrimidin-6-yl)pyrido[1,2-a]pyrimidin-4-one] | 0.175 µM | 1.77 |  | < 0.03 µM
3 | Cc1nc2ncc(-c3cc(=O)n4cc(N5CC6(CCNCC6)C5)ccc4n3)cn2n1 [Example 5, 7-(2,7-diazaspiro[3.5]nonan-2-yl)-2-(2-methyl-[1,2,4]triazolo[1,5-a]pyrimidin-6-yl)pyrido[1,2-a]pyrimidin-4-one] | 0.106 µM | 1.99 |  | < 0.0317 µM
4 | Cc1nc2ccc(-c3cc(=O)n4cc(N5CCNCC5)ccc4n3)nn2n1 [Example 19, 7-piperazin-1-yl-2-(2-methyl-[1,2,4]triazolo[1,5-b]pyridazin-6-yl)pyrido[1,2-a]pyrimidin-4-one] | 0.0392 µM | 1.81 | 0.009 µM | 
5 | Cc1nc2ncc(-c3cc(=O)n4cc(N5CCNCC5)ccc4n3)cn2n1 [Example 1, 2-(2-methyl-[1,2,4]triazolo[1,5-a]pyrimidin-6-yl)-7-piperazin-1-yl-pyrido[1,2-a]pyrimidin-4-one] | 0.221 µM | 1.9 |  | 0.0584 µM
6 | Cc1nc2ncc(-c3cc(=O)n4cc(N5CC6CNC6C5)ccc4n3)cn2n1 (stereo not drawn) [Example 9, 7-(3,6-diazabicyclo[3.2.0]heptan-3-yl)-2-(2-methyl-[1,2,4]triazolo[1,5-a]pyrimidin-6-yl)pyrido[1,2-a]pyrimidin-4-one] | 2.88 µM | 1.9 |  | 0.283 µM
7 | Cc1nc2ccc(-c3cc(=O)n4cc(N5CCN(C6COC6)CC5)cc(C)c4n3)nn2n1 [Example 31, 9-methyl-7-[4-(oxetan-3-yl)piperazin-1-yl]-2-(2-methyl-[1,2,4]triazolo[1,5-b]pyridazin-6-yl)pyrido[1,2-a]pyrimidin-4-one] | 1.31 µM | 1.75 | 0.13 µM | 
8 | Cc1nc2ccc(-c3cc(=O)n4cc(N5CCN[C@H](C)C5)ccc4n3)nn2n1 [Example 17, 7-[(3R)-3-methylpiperazin-1-yl]-2-(2-methyl-[1,2,4]triazolo[1,5-b]pyridazin-6-yl)pyrido[1,2-a]pyrimidin-4-one] | 0.0932 µM | 1.82 |  | 0.0191 µM
9 | Cc1nc2ncc(-c3cc(=O)n4cc(N5C[C@@H](C)N[C@@H](C)C5)ccc4n3)cn2n1 [Example 2, 7-[(3R,5S)-3,5-dimethylpiperazin-1-yl]-2-(2-methyl-[1,2,4]triazolo[1,5-a]pyrimidin-6-yl)pyrido[1,2-a]pyrimidin-4-one] | 0.508 µM | 1.93 |  | 0.067 µM
10 | Cc1nc2ccc(-c3cc(=O)n4cc(N5CCN6CCC[C@@H]6C5)cc(C)c4n3)nn2n1 [Example 34, 7-[(8aR)-3,4,6,7,8,8a-hexahydro-1H-pyrrolo[1,2-a]pyrazin-2-yl]-9-methyl-2-(2-methyl-[1,2,4]triazolo[1,5-b]pyridazin-6-yl)pyrido[1,2-a]pyrimidin-4-one] | 0.0191 µM | 1.8 | 0.0028 µM | 
11 | Cc1nc2ccc(-c3cc(=O)n4cc(N5CCN(C)CC5)ccc4n3)nn2n1 [Example 39, 7-(4-methylpiperazin-1-yl)-2-(2-methyl-[1,2,4]triazolo[1,5-b]pyridazin-6-yl)pyrido[1,2-a]pyrimidin-4-one] | 0.09 µM | 1.74 | 0.0272 µM | 
12 | Cc1nc2ncc(-c3cc(=O)n4cc(N5CCN[C@@H](C)C5)ccc4n3)cn2n1 [Example 16, 7-[(3S)-3-methylpiperazin-1-yl]-2-(2-methyl-[1,2,4]triazolo[1,5-a]pyrimidin-6-yl)pyrido[1,2-a]pyrimidin-4-one] | 0.281 µM | 1.71 |  | 0.115 µM
13 | Cc1nc2ccc(-c3cc(=O)n4cc(N5CC[C@@H](N(C)C)C5)cc(C)c4n3)nn2n1 [Example 30, 7-[(3R)-3-(dimethylamino)pyrrolidin-1-yl]-9-methyl-2-(2-methyl-[1,2,4]triazolo[1,5-b]pyridazin-6-yl)pyrido[1,2-a]pyrimidin-4-one] | 0.0279 µM | 1.98 | 0.0065 µM | 
14 | Cc1nc2ncc(-c3cc(=O)n4cc(N5CC[C@@H](N(C)C)C5)ccc4n3)cn2n1 [Example 3, 7-[(3R)-3-(dimethylamino)pyrrolidin-1-yl]-2-(2-methyl-[1,2,4]triazolo[1,5-a]pyrimidin-6-yl)pyrido[1,2-a]pyrimidin-4-one] | 0.52 µM | 1.79 |  | 0.0452 µM
15 | Cc1nc2ncc(-c3cc(=O)n4cc(N5CCCN(C)CC5)ccc4n3)cn2n1 [Example 4, 7-(4-methyl-1,4-diazepan-1-yl)-2-(2-methyl-[1,2,4]triazolo[1,5-a]pyrimidin-6-yl)pyrido[1,2-a]pyrimidin-4-one] | 0.324 µM | 1.78 |  | 0.1 µM
16 | Cc1nc2ncc(-c3cc(=O)n4cc(N5CCN(C6CNC6)CC5)ccc4n3)cn2n1 [Example 10, 7-[4-(azetidin-3-yl)piperazin-1-yl]-2-(2-methyl-[1,2,4]triazolo[1,5-a]pyrimidin-6-yl)pyrido[1,2-a]pyrimidin-4-one] | 30 µM | 1.5 |  | 5.93 µM
